Laboratory results reported in patent US9598364B2, “Indolyl or indolinyl hydroxamate compounds” (Taipei Medical University, priority 2010, dated 2017).
Where two headings read alike, the source gives them in different places.

Assays:
[1] = test system: MDA-MB-231 (estrogen-independent breast cancer); test: SRB assay, MDA-MB-231; type: cell-based; details: Homo sapiens, MDA-MB-231 cells, 48 h
Description: (§1) Human cancer A549 (non-small cell lung cancer), MDA-MB-231 (estrogen-independent breast cancer), Hep 3B (hepatoma), and HA22T (hepatoma) cells were seeded in 96-well plates in medium with 5% FBS. After 24 h, cells were fixed with 10% trichloroacetic acid (TCA) to represent cell population at the time of compound addition (T0). After additional incubation of DMSO or test compound for 48 h, cells were fixed with 10% TCA and SRB at 0.4% (w/v) in 1% acetic acid was added to stain cells. Unbound SRB was washed out by 1% acetic acid and SRB bound cells were solubilized with 10 mM Trizrna base. The absorbance was read at a wavelength of 515 nm. Using the absorbance measurements of time zero (T0), the control group (C), and the cell growth in the presence of the compound (Ti), the percentage growth was calculated at each of the compound concentrations levels.

Hep 3B (hepatoma) = test: SRB assay, Hep 3B; type: cell-based; details: Homo sapiens, Hep3B, Hep-3B cells, 48 h, read-out: Hep-3B liver GI50
Description: as §1

HL60 = test: cells
Description: (§2) 10^4 cells per well were seeded in 96-well culture plates with or without one of the test compounds. Various concentrations for the test compound were examined. […] The drug concentration resulting in total growth inhibition (TGI) is determined when Ti=Tz.
(§3) Cells were seeded in a 96-well flat-bottomed plate (2,500 to 3,000 cells per well). […] After being incubated at 37° C. for 2 h, the supernatant was removed and 200 μl/well of DMSO were added to dissolve the remaining MTT dye. The absorbance at 570 nm in each well was determined using a plate reader.

U937 = test: cells
Description: as §2, §3

MV4-11 = test: cells
Description: as §2, §3

K562 = test: cells
Description: as §2, §3

NB4 = test: cells
Description: as §2, §3

[2] = test system: A549 (non-small cell lung cancer); test: SRB assay, A549; type: cell-based, Human; details: A549 cells, 48 h
Description: as §1

PC-3 cells = test: Western blot analysis; type: cell-based; details: PC-3 cells, 1, 2.5, or 5 μM, 48 hours
Description: PC-3 cells treated with a test compound at 1, 2.5, or 5 μM in RPMI 1640 supplemented with 10% FBS for 48 hours. The cells were collected and sonicated. Protein concentrations in the resultant lysates were determined by a Bradford protein assay kit (Bio-Rad, Hercules, Calif.). The protein lysate, containing the same amount of proteins, were subjected to 10% SDS-polyacrylarnide gel (10%) electrophoresis. The proteins on the gel were then transferred onto an Immobilon-nitrocellulose membrane (Millipore, Bellerica, Mass.) in a semi-dry transfer cell. The transblotted membrane was washed twice with tris-buffered saline containing 0.1% Tween 20 (TBST). After being blocked with TBST containing 5% nonfat milk for 40 min, the membrane was incubated with a primary antibody specific to Acetyl-H3 (antibody obtained from Upstate Biotechnology, Inc., Lake Placid, N.Y.), H3 (Upstate Biotechnology), Acetyl α-tubulin (Sigma-Aldrich, St. Louis, Mo.), phospho-Akt (Serine 473) (Cell Signaling Technologies, Danvers, Mass.), Akt (Cell Signaling Technologies), Acetyl p53 (Santa Cruz Biotechnology, Santa Cruz, Calif.), p53 (Santa Cruz Biotechnology), p21 (Santa Cruz Biotechnology), or α-tubulin (Sigma-Aldrich, St. Louis, Mo.) (1:3000 dilution) in TBST/1% nonfat milk at 4 overnight. The membrane was washed three times with TBST for a total of 15 min and then incubated with a goat anti-rabbit or anti-mouse IgG antibody conjugated with horseradish (diluted 1:3000) for 1 h at room temperature. After being washed for at least three times with TBST, the signal intensity for each protein band was determined.

HA22T (hepatoma) = test: SRB assay, HA22T; type: cell-based, Human; details: HA22T cells, 48 h, read-out: HA22T liver GI50
Description: as §1

Kasumi-1 = test: MTT cell viability assay, Kasumi-1; type: cell-based
[3] = HL60 leukemia cells, MTT, 48 or 72 hr
[4] = U937 leukemia cells, MTT, 48 or 72 hr
[5] = K562 leukemia cells, MTT, 48 or 72 hr
[6] = NB4 leukemia cells, MTT, 48 or 72 hr

Molecule `O=C(C=Cc1ccc2c(c1)CCN2S(=O)(=O)c1ccccc1)NO` [Compound 12, 3-(1-benzenesulfonyl-2,3-dihydro-1H-indol-5-yl)-N-hydroxy-acrylamide] has a GI50 [1] of 0.25 µM, a GI50 (Hep 3B (hepatoma)) of 0.21 µM and a TGI (HL60; [3]) of 0.0653 µM. For the same molecule, the GI50 (HL60; Homo sapiens, HL-60) was 0.0329 µM, the GI50 (U937; Homo sapiens, U-937) was 0.0547 µM and the CC50 (U937; Homo sapiens, U-937, read-out: LC50) was > 10 µM. The TGI (U937; [4]) was 8.33 µM, the GI50 (MV4-11; Homo sapiens, MV4-11) was 0.0131 µM and the CC50 (MV4-11; Homo sapiens, MV4-11, read-out: LC50) was 0.0872 µM. For the same molecule, the TGI (MV4-11; MV4-11 leukemia cells, MTT, 48 or 72 hr) was 0.0502 µM, the GI50 (K562; Homo sapiens, K562) was 0.149 µM and the CC50 (K562; Homo sapiens, K562, read-out: LC50) was > 10 µM. The TGI (K562; [5]) was 0.982 µM, the GI50 (NB4; Homo sapiens, NB-4) was 0.0315 µM and the CC50 (NB4; Homo sapiens, NB-4, read-out: LC50) was 0.091 µM. For the same molecule, the TGI (NB4; [6]) was 0.0612 µM, the GI50 ([2]; Homo sapiens) was 0.7 µM and the H3 expression (PC-3 cells) was “upregulated”. For the same molecule, the histone deacetylation (PC-3 cells) was “inhibited”, the tubulin acetylation (PC-3 cells) was “upregulated” and the GI50 (HA22T (hepatoma); Homo sapiens) was 0.62 µM.
`COc1ccc(S(=O)(=O)N2CCc3cc(C=CC(=O)NO)ccc32)cc1` [Compound 13, N-hydroxy-3-[1-(4-methoxy-benzenesulfonyl)-2,3-dihydro-1H-indol-5-yl]-acrylamide] showed a GI50 [1] of 0.16 µM, a GI50 (Hep 3B (hepatoma)) of 0.14 µM and a GI50 ([2]; Homo sapiens) of 0.32 µM. It also gave a GI50 (HA22T (hepatoma); Homo sapiens) of 0.54 µM.
For `O=C(C=Cc1ccc2c(c1)CCN2S(=O)(=O)c1ccc(F)cc1)NO` [Compound 14, 3-[1-(4-fluoro-benzenesulfonyl)-2,3-dihydro-1H-indol-5-yl]-N-hydroxy-acrylamide], the GI50 [1] was 0.37 µM, the GI50 (Hep 3B (hepatoma)) was 0.25 µM and the GI50 ([2]; Homo sapiens) was 0.6 µM. It also gave a GI50 (HA22T (hepatoma); Homo sapiens) of 1.2 µM.
Work on `O=C(C=Cc1ccc2c(c1)CCN2S(=O)(=O)c1ccc([N+](=O)[O-])cc1)NO` [Compound 15, N-hydroxy-3-[1-(4-nitro-benzenesulfonyl)-2,3-dihydro-1H-indol-5-yl]-acrylamide] yielded a GI50 [1] of 0.45 µM, a GI50 (Hep 3B (hepatoma)) of 0.28 µM and a GI50 ([2]; Homo sapiens) of 0.8 µM. It also gave a GI50 (HA22T (hepatoma); Homo sapiens) of 0.74 µM.
For `Nc1ccc(S(=O)(=O)N2CCc3cc(C=CC(=O)NO)ccc32)cc1` [Compound 16, 3-[1-(4-amino-benzenesulfonyl)-2,3-dihydro-1H-indol-5-yl]-N-hydroxy-acrylamide], the GI50 [1] was > 10 µM, the GI50 (Hep 3B (hepatoma)) was > 10 µM and the GI50 ([2]; Homo sapiens) was > 10 µM. For the same molecule, the GI50 (HA22T (hepatoma); Homo sapiens) was > 10 µM.
For `COc1ccc(S(=O)(=O)N2CCc3cc(C=CC(=O)NO)ccc32)cc1OC` [Compound 17, 3-[1-(3,4-dimethoxy-benzenesulfonyl)-2,3-dihydro-1H-indol-5-yl]-N-hydroxy-acrylamide], the GI50 [1] was 0.19 µM, the GI50 (Hep 3B (hepatoma)) was 0.16 µM and the GI50 ([2]; Homo sapiens) was 0.32 µM. It also gave a GI50 (HA22T (hepatoma); Homo sapiens) of 0.62 µM.
`O=C(CCCCCCC(=O)Nc1ccccc1)NO` [SAHA, reference compound] gave a CC50 (Kasumi-1) of 0.917 µM, a TGI (Kasumi-1; Kasumi-1 leukemia cells, MTT, 48 or 72 hr) of 0.60475 µM and a GI50 (HL60; [3]) of 0.455 µM. For the same molecule, the TGI (HL60; [3]) was 0.8119 µM, the CC50 (U937) was 5.85 µM and the GI50 (U937; [4]) was 0.59 µM. The TGI (U937; [4]) was 2.0069 µM, the CC50 (K562) was > 10 µM and the GI50 (K562; [5]) was > 10 µM. The TGI (K562; [5]) was >10 µM, the CC50 (NB4) was 0.928 µM and the GI50 (NB4; [6]) was 0.303 µM. For the same molecule, the TGI (NB4; [6]) was 0.6158 µM, the GI50 [2] was 2.37 µM and the H3 expression (PC-3 cells) was “upregulated”. The histone deacetylation (PC-3 cells) was “inhibited”, the tubulin acetylation (PC-3 cells) was “upregulated” and the GI50 (HA22T (hepatoma)) was 2.24 µM.
